Source: patent publication US20050222312A1, “Antioxidant and antimicrobial agents and methods of use thereof” (priority 2002, published 2005)

Tests used:
forestomachs of rats = conditions: Nera et al., Toxicology 32:197-213 (1984); cited from earlier work
E. coli O157:H7 = assay: liquid culture growth inhibition assay; type: cell-based, Escherichia coli O157:H7; conditions: all strains tested, 24 and 48 hrs
Experimental: (§1) For these experiments, three strains of Listeria monocytogenes (CWD 95, CWD 246 and CWD 201), three strains of Escherichia coli O157:H7 (AR, AD 305, and AD 317), Salmonella typhimurium (clinical DT 104 isolate H3380), Salmonella enteritidis (clinical isolate H3527, phage type 13A) and Salmonella heidelberg (clinical isolate F5038BG1, Maryland outbreak) were obtained. All strains were stored at −70° C., in Trypticase soy broth containing 10% (v/v) glycerol. Thawed strains were subcultured three times in Trypticase soy broth containing 0.6% (w/v) yeast extract (TSB-YE) (Difco Laboratories, Detroit, Mich.) at 35° C., 18 to 24 h before use.
(§2) For these experiments, sub-cultured bacteria (10^8 cfu Salmonella; 10^9 cfu Listeria monocytogenes and 10^9 cfu E. coli) were each added to culture tubes containing TSB-YE. Three strains of each bacterial species were used, and 1,2,3,4-tetrahydroxybenzene was added to concentrations ranging from 1.4 mM to 14 mM. Three culture tubes were used for each 1,2,3,4-tetrahydroxybenzene concentration. The samples were incubated at 35° C. and observation of growth was recorded at 24 and 48 hrs. Results were reported as the number or tubes positive or negative for growth at 24 h and 48 h.

[1] = antioxidant activity, peroxide value of corn oil; conditions: 0.01% w/w (100 ppm), 60° C., FIG. 1
Experimental: (§3) Aliquots of corn oil stripped of endogenous antioxidants were mixed with either 1,2,3,4-tetrahydroxybenzene (OH-Bz), or with a known antioxidant chosen from propyl gallate (PG), tert-butylhydroquinone (TBHQ), and α-tocopherol (Toc). Each antioxidant was at a concentration of 0.01% w/w (i.e., 100 ppm). The mixtures (as well as controls) were maintained at 60° C. Samples of each mixture were removed at a series of time points over a period of 28 days, and the peroxide value of each sample was measured using standard laboratory techniques (FIG. 1). Similarly, aliquots of lard were mixed with either 1,2,3,4-tetrahydroxybenzene (OH-Bz), or with a known antioxidant chosen from propyl gallate (PG), tert-butylhydroquinone (TBHQ), and α-tocopherol (Toc). Each antioxidant was at a concentration of 0.01% w/w. The mixtures (as well as controls) were maintained at 60° C. Samples of each mixture were removed at a series of time points over a period of 26 days, and the peroxide value of each sample was measured using standard laboratory techniques (FIG. 2).

[2] = antioxidant activity, peroxide value of lard; conditions: 0.01% w/w, 60° C., FIG. 2
Experimental: as §3

Salmonella enteritidis = assay: liquid culture growth inhibition assay; type: cell-based; conditions: all strains tested, 24 and 48 hrs
Experimental: as §1, §2

Salmonella cocktail = assay: liquid culture growth inhibition assay; type: cell-based
Experimental: as §1, §2

Salmonella typhimurium [3] = assay: liquid culture growth inhibition assay; type: cell-based; conditions: all strains tested, 24 and 48 hrs
Experimental: as §1, §2

Listeria monocytogenes [4] = assay: liquid culture growth inhibition assay; type: cell-based; conditions: all strains tested, 24 and 48 hrs
Experimental: as §1, §2

Salmonella heidelberg = assay: liquid culture growth inhibition assay; type: cell-based; conditions: all strains tested, 24 and 48 hrs
Experimental: as §1, §2

Escherichia coli = assay: inhibition zone experiment (pour plate, filter disc); type: cell-based; conditions: 24 hrs, FIG. 3
Experimental: as §1
(§4) To test antimicrobial activity of 1,2,3,4-tetrahydroxybenzene, a pour plate technique was used in which 200 μl samples of subcultured bacteria (either […] colony forming units (CFU)/ml of Salmonella, 109 CFU/ml of L. monocytogenes or 10^9 CFU/ml of E. coli) were transferred to a Petri dish (100 mm×15 mm) to which 20 ml of Trypticase soy agar containing 0.6% (w/v) yeast extract (TSA-YE) was added. The contents of each Petri dish was then mixed by gently forming figure eights with the dish against the bench top. Separately, solutions of 1,2,3,4-tetrahydroxybenzene were prepared at the following concentrations: 1.4 M, 0.14 M, 0.014 M, 0.0014 M, and 0.00014 M. 16 mm filter discs comprising 1,2,3,4-tetrahydroxybenzene each then received 50 μl of a solution comprising one concentration of 1,2,3,4-tetrahydroxybenzene. A single 16 mm disc comprising 50 μl of one concentration of 1,2,3,4-tetrahydroxybenzene was then placed aseptically in the center of each Petri dish. The Petri dishes were then incubated at 35° C. Zones of growth inhibition were determined by observation at 24 hrs. All tests were run in triplicate and averaged.

Salmonella typhimurium [5] = assay: as above; type: cell-based; conditions: 24 hrs, FIG. 3
Experimental: as §1, §4

Listeria monocytogenes [6] = assay: as above; type: cell-based; conditions: 24 hrs, FIG. 3
Experimental: as §1, §4

[7] = 50 μl at 1.4 M or 0.14 M on 16 mm filter disc
[8] = concentrations lower than 0.14 M, 16 mm filter disc

Row | SMILES | carcinogenicity (forestomachs of rats) | concentration at which complete inhibition occurred (E. coli O157:H7) [mM] | antioxidant activity (peroxide value) ([1]; 28 days) | period over which antioxidant activity is maintained [1] | antioxidant activity (peroxide value) ([2]; 26 days) | period over which antioxidant activity is maintained [2] | concentration at which complete inhibition occurred (Salmonella enteritidis) [mM] | concentration at which complete inhibition occurred (Salmonella cocktail) [mM] | concentration at which complete inhibition occurred (Salmonella typhimurium [3]) [mM] | concentration at which complete inhibition occurred (Listeria monocytogenes [4]) [mM] | concentration at which complete inhibition occurred (Salmonella heidelberg) [mM] | zones of growth inhibition (Escherichia coli; [7]) | zones of growth inhibition (Escherichia coli; [8]) | zones of growth inhibition (Salmonella typhimurium [5]; [7]) | zones of growth inhibition (Salmonella typhimurium [5]; [8]) | zones of growth inhibition (Listeria monocytogenes [6]; [7]) | zones of growth inhibition (Listeria monocytogenes [6]; [8])
1 | COc1ccc(O)c(C(C)(C)C)c1 [BHA, butylated hydroxyanisole] | implicated as a carcinogen promoting formation of tumors in the forestomachs of rats | – | – | – | – | – | – | – | – | – | – | – | – | – | – | – | –
2 | Oc1ccc(O)c(O)c1O [THB, 1,2,3,4-tetrahydroxybenzene] | – | ≥ 5.6 | highly effective antioxidant, equal or superior to PG, TBHQ, PG, and α-tocopherol | at least 26 days | highly effective antioxidant, equal or superior to PG, TBHQ, PG, and α-tocopherol | at least 26 days | ≥ 5.6 | ≥ 5.6 | ≥ 5.6 | ≥ 5.6 | ≥ 5.6 | led to appearance of zones of inhibition | did not form zones of inhibition greater than the diameter of the filter | led to appearance of zones of inhibition | did not form zones of inhibition greater than the diameter of the filter | led to appearance of zones of inhibition | did not form zones of inhibition greater than the diameter of the filter
